# “Also recorded” adds a separate entry of the source. Structures can show the parent of a compound that is named as a salt. Where two headings read alike, the source gives them in different places.
# Experiments:
# [1] = test system: patients having coronary artery bypass graft surgery; conditions: cited from earlier work
# rats = conditions: for effect of antagonist on clonidine induced potentiation of morphine analgesia / effect of antagonist on clonidine induced potentiation of oxycodone analgesia: idazoxan 2 mg/kg ip or yohimbine 2 mg/kg ip 15 min before clonidine 1 mg/kg ip; for effect of antagonist on clonidine induced potentiation of morphine analgesia: morphine 8 mg/kg sc; for analgesic effect of agent alone (in words): clonidine 1 mg/kg ip
# [2] = test system: patients undergoing cesarean delivery; conditions: epidural clonidine 75 μg; cited from earlier work
# Body temperature in mice = format: in vivo; conditions: clonidine 0.3 mg/kg with 0.5% CMC or sulfisoxazole 250, 500 or 1000 mg/kg; after 3 hours; FIG. 6B
# mice = assay: Tail-flick latency (antinociception) in mice
# Protocol: Animals: Male Swiss Webster mice weighing 25 to 30 g (Harlan, Indianapolis, IN) were used. The animals were housed five per cage in a room with controlled ambient temperature (23±1° C.), humidity (50±10%) and twelve-hour light/dark cycle (6.00 AM to 6.00 PM). Food and water were made available ad libitu Experiments were carried out after the animals had been acclimated to this environment for at least 4 days.
# Statistics: All data values are presented as mean±SEM. ANOVA followed by post-hoc test (Bonferroni's Test) were used to test differences within and between groups. A level of P<0.05 was considered significant.
# Application of theiinal stimulation (focused light) to the tail of an animal provoked withdrawal of the tail by a brief vigorous movement. The reaction time of this movement was recorded as tail-flick latency by using an analgesiometer. […] A cutoff time of 10 sec was used to prevent damage to the tail. Tail flick latency values were subtracted from the basal latency and the differential values were used to calculate the area under the curve (AUC).
# [3] = test system: patients, immediately after spinal fusion; conditions: cited from earlier work
# [4] = cited from earlier work
# [5] = cited from earlier work; remark: listed apart in the source
compound,measurement,setting,value
"CN1CC[C@]23c4c5ccc(O)c4O[C@H]2[C@@H](O)C=C[C@H]3[C@H]1C5.O=S(=O)(O)O [Morphine, 7,8-didehydro-4,5α-epoxy-17-methylmorphinan-3,6α-diol sulfate]","morphine dosage in the first 24 h, median (25th-75th percentiles)",[1]; i.v. PCA morphine group (control),37 (30.5-51) mg
same,"morphine dosage in the first 24 h, median (25th-75th percentiles)","[1]; intrathecal morphine 4 microg/kg group, plus i.v. PCA morphine",40.5 (15-61.5) mg
"COC(=O)[C@@H]1[C@H]2C[C@H]3c4[nH]c5ccccc5c4CCN3C[C@@H]2CC[C@@H]1O [Yohimbine, 17α-hydroxy-yohimban-16α-carboxylate hydrochloride]",effect of antagonist on clonidine induced potentiation of morphine analgesia,rats; hydrochloride,Blocked
same,effect of antagonist on clonidine induced potentiation of oxycodone analgesia,"rats; oxycodone 4 mg/kg sc, hydrochloride",Blocked
"Cc1noc(NS(=O)(=O)c2cccc3c(N(C)C)cccc23)c1C [BMS182874, 5-(dimethylamino)-N-(3,4-dimethyl-5-isoxazolyl)-1-naphthalene sulfonamide]",analgesic effect of agent alone (in words),rats; BMS182874 50 μg icv,did not produce any analgesic effect
"Clc1cccc(Cl)c1NC1=NCCN1 [Clonidine, N-(2,6-dichlorophenyl)-4,5-dihydro-1H-imidazol-2-amine]",effect on duration of analgesia produced by 2 mg of morphine,[2],doubled
same,"body temperature, lowest value (from 37° C.)",Body temperature in mice,approximately 32 °C
same,analgesic effect of agent alone (in words),rats; BMS182874 50 μg icv,produced analgesia; also recorded: significant
same,effect on morphine analgesia in rats treated with BMS182874,"rats; clonidine 0.3 and 1.0 mg/kg ip, BMS182874 50 μg icv, morphine 4 mg/kg sc",increase in morphine analgesia
same,effect on oxycodone analgesia in rats treated with BMS182874,"rats; clonidine 0.3 and 1.0 mg/kg ip, BMS182874 50 μg icv, oxycodone 4 mg/kg sc",increase in oxycodone analgesia
same,AUC0→240 min determined from tail flick latency,"mice; Example 3, FIG. 1B: morphine 4 mg/kg s.c., clonidine 2 mg/kg i.p. 30 min before morphine or vehicle, mean±SEM, N=6",68.4±12.3
same,AUC0→240 min of tail flick latency,"mice; Example 5 Study 2, FIG. 4: clonidine 2 mg/kg i.p., sulfisoxazole 1000 mg/kg oral, morphine 8 mg/kg s.c., mean±SEM, N=6",increase in AUC
same,tail flick latency (in words),"mice; clonidine 0.3 mg/kg i.p. plus 0.5% CMC p.o., by 6 hours",approximately the level of vehicle treated animals
same,change in mean arterial pressure,[3]; clonidine group at T11,−26+/−2%
same,mean arterial pressure,[3]; clonidine group,74+/−2 mmHg
same,"morphine requirement, dose for each patient","[3]; clonidine group, placebo 10.8+/−1.2",3.8 ± 1 mg
same,pain score (visual analog scale 0-100 mm) after treatment,"[3]; clonidine i.v. 5 micrograms/kg 1st h then 0.3 microgram/kg/h for 11 h, decreased from 42+/−5, mean+/−standard error",26+/−3 mm
"4-amino-N-(3,4-dimethyloxazol-5-yl)-benzenesulfonamide [Sulfisoxazole]",solubility (in words),[4],highly soluble
same,concentration in the cerebrospinal fluid (in words),"[5]; average, relative to blood",about a third of blood concentration
same,excreted in urine by kidney,[5]; in 24 hours,95%
same,binding to plasma proteins (in words),[5]; in vivo,extensively bound to plasma proteins
"c1ccc2c(c1)OCC(C1=NCCN1)O2 (centres unmarked) [Idazoxan, 2-(1,4-benzodioxan-2-yl)-2-imidazoline]",effect of antagonist on clonidine induced potentiation of morphine analgesia,rats,did not affect; also recorded: No effect
same,effect of antagonist on clonidine induced potentiation of oxycodone analgesia,rats; oxycodone 4 mg/kg sc,Blocked

# Reference: patent US20110263542A1, “METHODS TO TREAT PAIN USING AN ALPHA-2 ADRENERGIC AGONIST AND AN ENDOTHELIN ANTAGONIST” (ENGOGENX, priority 2008, published 2011)
